Changes are numbered by the printed parent chain.
Legend:
[1] = molecular target: T1, wild type AR (Homo sapiens, UniProt P10275); test: MMTV-luciferase transcription assay in CV-1 cells, wild type AR; assay type: cell-based; conditions: wild type AR; values given in μM; read-out: MMTV transcription assay in CV-1 cells WT (IC50)
T1 construct: expressed in transfected cells; host or cells: CV-1
T1 sequence (P10275 1-920): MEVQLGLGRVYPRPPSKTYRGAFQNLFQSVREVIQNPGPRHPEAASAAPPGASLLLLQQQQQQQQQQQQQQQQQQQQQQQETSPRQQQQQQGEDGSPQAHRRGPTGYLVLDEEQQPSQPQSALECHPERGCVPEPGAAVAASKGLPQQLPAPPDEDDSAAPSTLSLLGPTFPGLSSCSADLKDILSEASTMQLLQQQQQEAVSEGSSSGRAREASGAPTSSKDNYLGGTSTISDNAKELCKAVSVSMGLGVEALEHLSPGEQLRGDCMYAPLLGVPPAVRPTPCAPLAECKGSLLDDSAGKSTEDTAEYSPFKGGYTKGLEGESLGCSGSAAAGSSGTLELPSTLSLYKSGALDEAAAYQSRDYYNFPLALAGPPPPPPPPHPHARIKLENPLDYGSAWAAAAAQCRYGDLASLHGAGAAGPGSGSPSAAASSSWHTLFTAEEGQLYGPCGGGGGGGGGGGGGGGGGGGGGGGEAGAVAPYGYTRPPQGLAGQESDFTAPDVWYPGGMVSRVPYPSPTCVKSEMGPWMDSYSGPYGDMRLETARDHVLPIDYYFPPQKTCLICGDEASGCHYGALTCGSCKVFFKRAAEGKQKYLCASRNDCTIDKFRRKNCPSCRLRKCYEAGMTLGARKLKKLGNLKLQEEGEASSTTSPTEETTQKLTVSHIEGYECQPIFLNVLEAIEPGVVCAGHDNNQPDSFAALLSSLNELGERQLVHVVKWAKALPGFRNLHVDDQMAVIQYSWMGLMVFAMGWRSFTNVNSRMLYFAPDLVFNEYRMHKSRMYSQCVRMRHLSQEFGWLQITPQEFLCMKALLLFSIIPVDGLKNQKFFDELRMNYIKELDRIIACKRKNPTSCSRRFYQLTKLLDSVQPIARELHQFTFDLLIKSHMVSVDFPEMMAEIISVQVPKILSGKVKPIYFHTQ
Excerpt: These compounds were screened using an AR-responsive MMTV transcription assay in CV-1 cells, utilizing both wild type and T877A (LNCaP) AR. […]

[2] = molecular target: T2, AR (Homo sapiens, UniProt P10275); test: AR relative binding affinity (RBA)
T2 sequence (P10275 1-920): T1 sequence (P10275 1-920)

[3] = test system: AR-VP16 construct; test: MMTV-luciferase reporter gene assay with AR-VP16 construct (AR/DNA binding); assay type: cell-based
Excerpt: Accordingly, we analyzed the disruption of AR/DNA binding using a luciferase reporter gene assay transfected with an AR-VP16 construct that is constitutively active upon DNA binding, regardless of the ability of AR to recruit transcriptional machinery (FIG. 40A). Simultaneously, we examined CV-1 cells transfected with an AR construct that is only transcriptionally active when there is a positive interaction between the NTD and C-terminal LBD ([…]) (FIG. 40B).

[4] = molecular target: T3, W741C AR (Homo sapiens, UniProt P10275, W742C); test: MMTV-luciferase transcription assay in CV-1 cells, W741C AR
T3 sequence (P10275 1-920 W742C): T1 sequence (P10275 1-920) with W742C

[5] = test system: LNCaP cells; test: LNCaP cell proliferation

## COc1cc([C@H]2[C@H](c3ccccc3)[C@H](c3cc(OC)nc(OC)n3)[C@H]2c2ccccc2)nc(OC)n1 [CB-22]
[1]
  IC50: 18 µM
[2]
  AR RBA: 0.056%
[3]
  inhibition of AR/DNA binding: inhibitory activity
[4]
  IC50: 2.36 µM
[5]; LNCaP vs VCaP
  more potent in LNCaP cells than in VCaP cells (anti-proliferative activity): 10-15 fold
[5]; androgen-stimulated LNCaP cells
  inhibition of LNCaP cell proliferation: slow cell-growth in a dose-dependent manner

Reference: patent US9868705B2, “Tetra-aryl cyclobutane inhibitors of androgen receptor action for the treatment of hormone refractory cancer” (The Board of Trustees of the University of Illinois, priority 2013, dated 2018)
